{"source": "patent US9289471B2", "about": "“Product and process for liquefaction of mucus or sputum” (National Jewish Health, priority 2002, dated 2016)", "assay": "Compaction assay: percent liquid fraction of CF sputum", "parameters": "species or system human", "conditions": "for percent liquid fraction: 20 min (FIG. 3A)", "experimental": "CF sputum stored at −80° C. was thawed at room temperature and aliquoted into 1.5 ml Eppendorf centrifuge tubes at volumes of 275 μl using a positive displacement pipette (Rainin, Emeryville, Calif.). Sputum samples were subjected to either diluent (H2O), Trx+TR+NADPH, GSH+glutathione reductase+NADPH, dithiothreitol (DTT) or N-acetylcysteine treatment by the addition of 25 μl of H2O containing the appropriate molar concentration of each agent. After brief vortexing (˜1 second), sample tubes were loaded onto a microtube rotisserie (Barnstead, Dubuque, Iowa) and incubated at 37° C. for 20 minutes. Samples were then processed for compaction assay according to methodology originated by Daugherty et al. (Daugherty et al., Biomaterials 16:553-558, 1995). To perform the assay, the contents of each sample were loaded into 100 μl glass micro-capillary tubes (Fisher Scientific) that had been previously welded to 200 μl pipette tips in order to achieve a tight fit. Three modified capillary tubes were used to draw up >90% of each sputum sample. Capillary tubes were then removed from their pipette tip, sealed with clay, and centrifuged for 10 minutes in a hematocrit centrifuge (IEC, Needham Heights, Mass.), followed by measurement of the length in millimeters of the gel (solid) and aqueous (liquid) phases in each tube. The percent liquid fraction of each capillary tube was calculated by dividing aqueous phase length by total length (gel+aqueous)×100. The three measurements of the liquid fraction (%) derived from each sample were then averaged to generate a single value for each treatment condition.\nDue to abnormal ion transport caused by defects in the CFTR gene, airway secretions in CF patients are often desiccated. As a consequence, purulent CF sputum is comprised largely of a rigid and nonflowing biopolymer matrix, often referred to as gel phase, and lesser amounts of soluble, liquid phase. To assess the effect of Trx on the ratios of these two phases in sputum, compaction assay measurements were performed. […] After 20 minute incubation, the liquid fraction of each sample was determined by compaction assay.\nTo examine the effect of NADPH, additional samples from different donors were treated with 30 μM Trx, 0.1 μM TR and either 0, 0.2, 0.6, 1.0 or 2 mM NADPH for 20 minutes.\nTo assess the reproducibility of compaction assay measurements, sputum samples from three different CF donors were separated into aliquots and frozen. Specifically, freshly isolated CF sputum from three different donors (A, B, C) was separated into 275 μl aliquots and frozen. […] Results obtained from three independent experiments performed on each donor sample were used to evaluate assay reproducibility. On three consecutive days, aliquots were thawed, and treated with water, Trx and its reducing system, dithiothreitol (DTT), or no treatment.\nThe effectiveness of Trx in liquefying sputum was compared with other monothiol and dithiol reducing agents. Sputum samples were aliquoted and treated with Trx or GSH for 20 minutes and percent liquid determined by compaction assay. Initial compaction assay experiments compared the potencies of the Trx and GSH reducing systems in liquefaction of sputum in the presence of equimolar concentrations of NADPH. […] The analysis of Trx and NAC efficacy also was determined after 20 minute incubation, but on a different set of sputum samples."}
{"substance": "Trx: Lyophilized recombinant E. coli Trx from Promega; protein disulfide reductase, used with its reducing system (TR + NADPH)", "values": [{"measurement": "percent liquid fraction", "setting": "10 μM Trx + 0.1 μM TR + 2 mM NADPH", "value": "34.8±6.6", "unit": "%"}, {"measurement": "percent liquid fraction", "setting": "30 μM Trx + 0.1 μM TR + 2 mM NADPH", "value": "54.6±10.4", "unit": "%"}, {"measurement": "percentage of sputum present in the liquid phase", "setting": "30 μM Trx + 0.1 μM TR + 2 mM NADPH, 20 min, different donors (FIG. 1B)", "value": "70.55±18.13", "unit": "%"}, {"measurement": "percentage of sputum present in the liquid phase", "setting": "30 μM Trx + 0.1 μM TR without NADPH, 20 min (FIG. 1B)", "value": "2.9%±1.3"}, {"measurement": "percent liquid fraction", "setting": "60 μM Trx + 0.1 μM TR + 2 mM NADPH", "value": "67.0±8.0", "unit": "%"}, {"measurement": "3 day range of percent of sputum in the liquid state", "setting": "donor B, 30 μM Trx with reducing system", "value": "46-51%"}, {"measurement": "range of percent liquid values", "setting": "donor C, 30 μM Trx with reducing system", "value": "62-81%"}]}
